Measurements taken from US20230310531A1, “TRIPTERYGIUM WILFORDII COMPOSITION FOR INHIBITING DRUG-RESISTANT CANCER, AND PREPARATION METHOD AND USE THEREOF” (HUAQIAO UNIVERSITY, priority 2022, published 2023).
Read-outs that look alike come from different tables or passages of the source.

Assays:
Type in all cases: cell-based, human
H460/DDP cells = test: MTT cell proliferation inhibition, H460/DDP cells; conditions: for IC50: H460/DDP cells; for Combination index (CI): H460/DDP
Protocol: (§1) The cisplatin-resistant cells of non-small cells, lung cancer cells A549 and H1299 and human large cells, lung cancer cells H460 (that is, A549/DDP, H1299/DDP, and H460/DDP), as well as normal human lung bronchial epithelial cells 16HBE were used as cultured cells. All the cells were cultured with a PRMI-1640 complete medium at 37° C. with a CO2 concentration of 5%. Three kinds of cell models were established by culturing the above cells to a certain amount.
(§2) The three kinds of cells in a logarithmic growth phase obtained in step 1 were separately inoculated in a 96-well plate at a density of 5×10^4 cells/mL. 90 μL of the cells were added to each well, and a complete medium as a blank control group, a DMSO negative control, a TP positive control, and experimental groups with different concentrations of compounds were set up. Three replicate wells were set up in each group, and the cells were cultured in a carbon dioxide incubator for 24 h. Drugs were added in a volume of 10 μl to each well, such that final concentrations were 10 μg/ml, 20 μg/ml, 30 μg/ml, 40 μg/ml, and 50 μg/ml. After culturing for 24 h, 48 h, and 72 h, 10 μl of an MTT solution was added to each well. After incubation for 4 h, the medium in each well was aspirated, and 100 μl of DMSO was added. The culture plate was placed in a microplate reader and shaken for 5 min to dissolve crystals. The cells were put into a microplate reader for detection, and a detection wavelength was set to OD=490 nm and a reference wavelength OD=630 nm to measure an absorbance of each well.
(§3) Relative cell viability (%)=((OD value of drug experimental group−OD value of blank control group)/(OD value of negative control group−OD value of blank control group))×100%.
(§4) Relative cell inhibition rate (%)=(1−relative cell viability)×100%.
(§5) The formula for calculating a combination index (CI) was as follows: […]
(§6) In the formula, (Dx)1, (Dx)2, and (Dx)3 represented the drug doses used alone, while (D)1, (D)2, and (D)3 represented the […] contributed by the respective drugs in the combination. […] When CI<1, there was a synergistic effect; when CI>1, there was an antagonistic effect; and when CI=1, there was […].
(§7) A calculation method of IC50 was as follows: SPSS software was used for calculation: after entering the SPSS data editor, the (Variable View) was activated to define variables, and under the variable name (Name), informations were input as follows: “dose/concentration”, “inhibition rate”, “total value”. A parameter Analysis Regression Probit was selected, the “Probit Analysis” dialog box was brought up, the “Dose/Concentration” was selected into the “Covariates” column, the “Inhibition Rate” was selected into the “Response Frequency” column, and the “Total Value” was selected into the “Total Observed” column. In the “Transform” column, “Log base 10” was selected; in the “Mode 1” column, the “Probit” probability unit model was selected; and in the “Options” column, “Calculate from Data” was selected.
The experimental design, the five compounds, and a method for determining the inhibitory effect on cisplatin-resistant cells H460/DDP were the same as those in Example 1.

A549/DDP cells = test: MTT cell proliferation inhibition, A549/DDP cells; conditions: for cell inhibition rate increased, two drugs combined compared with the single drug group: TP 4 μg/ml plus compound (E 1, H 11, I 0.9, J 2, P 20 μg/ml), equal volume ratio; for IC50: compound alone
Protocol: as §1, §2, §3, §4, §5, §6, §7
When drugs were used in combination, the TP was compatible with any one or any two of the compounds E, H, I, J, and P separately in an equal volume ratio.

H1299/DDP cells = test: MTT cell proliferation inhibition, H1299/DDP cells; conditions: for Combination index (CI) / drug effect increased compared with TP alone: H1299/DDP; for drug effect increased compared with TP alone: used in combination with the TP
Protocol: as §1, §2, §3, §4, §5, §6, §7
The experimental design, the five compounds, and a method for determining the inhibitory effect on cisplatin-resistant cells H1229/DDP were the same as those in Example 1.

[1] = 48 h, compound alone (FIGS. 1A-R)
[2] = 48 h, TP 2.5 μg/ml, compound at higher dose (E 2, H 22, I 1.8, J 4, P 40 μg/ml)
[3] = 48 h, TP 2.5 μg/ml, compound at lower dose (E 1, H 11, I 0.9, J 2, P 20 μg/ml)
[4] = 48 h, TP 5 μg/ml, compound at higher dose (E 2, H 22, I 1.8, J 4, P 40 μg/ml)
[5] = 48 h, TP 5 μg/ml, compound at lower dose (E 1, H 11, I 0.9, J 2, P 20 μg/ml)
[6] = A549/DDP, TP 2.5 μg/ml, compound at higher dose (E 2, H 22, I 1.8, J 4, P 40 μg/ml)
[7] = A549/DDP, TP 2.5 μg/ml, compound at lower dose (E 1, H 11, I 0.9, J 2, P 20 μg/ml)
[8] = A549/DDP, TP 5 μg/ml, compound at higher dose (E 2, H 22, I 1.8, J 4, P 40 μg/ml)
[9] = A549/DDP, TP 5 μg/ml, compound at lower dose (E 1, H 11, I 0.9, J 2, P 20 μg/ml)
[10] = Homo sapiens, NCI-H460, 48 h, compound alone (FIGS. 1A-R), read-out: IC50
[11] = Homo sapiens, A549 cells (A549/DDP per FIG. 2 legend), 48 h, read-out: IC50
[12] = Homo sapiens, NCI-H1299, H1299/DDP, in combination with TP 2.5 μg/ml, read-out: IC50 concentrations doses
[13] = Homo sapiens, NCI-H1299, H1299/DDP, in combination with TP 5 μg/ml, read-out: IC50 concentrations doses

SMILES	IC50 (H460/DDP cells; [1]) [µg/mL]	Combination index (CI) (H460/DDP cells; [2])	Combination index (CI) (H460/DDP cells; [3])	Combination index (CI) (H460/DDP cells; [4])	Combination index (CI) (H460/DDP cells; [5])	cell inhibition rate increased, two drugs combined compared with the single drug group (A549/DDP cells; A549/DDP, 48 h) [times]	Combination index (CI) (A549/DDP cells; [6])	Combination index (CI) (A549/DDP cells; [7])	Combination index (CI) (A549/DDP cells; [8])	Combination index (CI) (A549/DDP cells; [9])	Combination index (CI) (H1299/DDP cells; [2])	Combination index (CI) (H1299/DDP cells; [3])	Combination index (CI) (H1299/DDP cells; [4])	drug effect increased compared with TP alone (H1299/DDP cells) [times]	Combination index (CI) (H1299/DDP cells; [5])	IC50 (H460/DDP cells; [10]) [µg/mL]	IC50 (A549/DDP cells; [11]) [µg/mL]	IC50 (H1299/DDP cells; [12]) [µg/mL]	IC50 (H1299/DDP cells; [13]) [µg/mL]	also measured
CC(=O)OCC12C(OC(=O)C=Cc3ccccc3)CCC(C)(O)C13OC(C)(C)C(C(OC(C)=O)C2OC(=O)c1cccnc1)C3OC(C)=O (stereo not drawn) [Compound E, 1β-(E-cinnamoyloxy)-4a-hydroxy-5a,7β,11-triacetoxy-8β-nicotinoyloxy-dihydroagarofuran]	1.98	0.6604	1.4669	0.5008	1.1134	2.01	1.1269	0.8986	1.1213	0.8688	1.1646	0.7473	0.8025	2.15	–	–	–	–	–	IC50 (H460/DDP cells; 48 h, compound alone (FIGS. 7A-E)): 0.58 µg/mL; IC50 (A549/DDP cells; A549 cells (A549/DDP per FIG. 2 legend), 48 h): 5.03 µg/mL
C[C@@]1(C(=O)O)CC[C@]2(C)CC[C@]3(C)C4=CC(=O)c5c(cc(O)c(O)c5C=O)[C@]4(C)CC[C@@]3(C)[C@@H]2C1 [Compound H, Demethylzeylasteral]	22.31	0.5569	0.7051	0.4270	0.6318	1.54	0.7225	0.8749	0.7206	1.1462	0.9651	0.8151	0.8689	2.12	–	–	–	–	–	–
CC(C)c1ccc2c(c1)CCC1C(C)(CO)C(=O)CCC21C (stereo not shown) [Compound I, Triptobenzene R]	1.893	1.2499	1.1241	0.7619	0.9327	1.81	0.8583	1.3864	0.8288	0.8316	1.1259	0.7373	1.1503	–	0.8353	–	–	–	–	inhibitory effect compared with TP (A549/DDP cells; A549/DDP, 48 h, compound alone (FIGS. 3A-E)): better inhibitory effect on cells than that of the TP; IC50 (H1299/DDP cells; H1299 cells (H1299/DDP per FIG. 2 legend), 48 h, compound alone): 8.61 µg/mL
CC(C)c1ccc2c(c1)C(=O)C[C@H]1[C@@](C)(CO)[C@@H](O)CC[C@]21C [Compound J, (3S,4S,5R,10S)-3,19-dihydroxy-7-ox-oabieta-8,11,13-triene]	–	0.3260	0.5384	0.3064	0.6519	1.58	0.9025	0.9333	0.9982	0.6952	0.9855	0.6741	0.5884	–	0.6735	4.32	6.92	1.84	0.9	IC50 (H460/DDP cells; Homo sapiens, NCI-H460, 48 h, compound alone (FIGS. 7A-E), read-out: IC50): 0.61 µg/mL; inhibition rate of combination with TP, times higher than TP alone (A549/DDP cells; A549/DDP, combination with TP): 1.32 times
CC(C)c1ccc2c(c1O)CC[C@H]1C(C)(C)[C@@H](O)CC[C@]21C [Compound P, Triptobenzene B]	–	0.1961	0.2435	0.2976	0.3777	1.34	1.2660	1.0764	1.4985	1.1918	1.1079	1.7041	0.9326	–	0.6521	39.2	6.72	12	11	IC50 (H1299/DDP cells; Homo sapiens, NCI-H1299, 48 h, H1299/DDP cells, 48 h, compound alone (FIGS. 5A-E), read-out: IC50): 12.8 µg/mL
CC(C)[C@]12O[C@H]1[C@@H]1O[C@]13[C@]1(O[C@H]1C[C@H]1C4=C(CC[C@@]13C)C(=O)OC4)[C@@H]2O [TP, triptolide, reference compound]	–	–	–	–	–	–	–	–	–	–	–	–	–	–	–	1.97	–	–	–	IC50 (A549/DDP cells; Homo sapiens, A549/DDP, A549DDP cells, read-out: IC50 value of A549DDP cells used as a synergistic dose): 7.83 µg/mL
